Entries after “also recorded” stand apart in the source; their conditions may differ.
Assays:
[1] = test system: cellulase from Trichoderma longibrachiatum; assay: Cellulase assay: release of C1PNP/PNP (absorbance 400 nm) from substrates, with and without β-glucosidase; format: biochemical; conditions: 40° C., pH 4.5; for sensitivity of the assay (rate of release of C1PNP) in the presence vs absence of β-glucosidase: absorbance 400 nm vs. time, FIGS. 3a-3b
Excerpt: FIGS. 3a-3b are graphs of absorbance (400 nm) vs. time, for the action of a cellulase from Trichoderma longibrachiatum on. […] In contrast, for BC1PNP-G3 (3b) the endo-acting Trichoderma cellulase cleaves the glycosidic bond either between two glucosyl units or between the bond between the terminal glucosyl unit and C1PNP releasing an end-blocked cello-oligosaccharide and a non-blocked C1PNP-cello-oligosaccharide fragment, or free C1PNP. The β-glucosidase in the assay mixture immediately hydrolyses the non-blocked C1PNP-cello-oligosaccharide released, giving D-glucose and free C1PNP.
FIG. 4 is a graph of absorbance (400 nm) vs. time, for the action of a cellulase from Trichoderma longibrachiatum (1500 milli-International Units on CMC-4M per assay) on p-nitrophenyl cellobiose (PNP-G2), 2-chloro-4-nitrophenyl cellobiose (C1PNP-G2), end-blocked p-nitrophenyl cellobiose (BPNP-G2) and end-blocked 2-chloro-4-nitrophenyl cellobiose (BC1PNP-G2) in the absence of added β-glucosidase at 40° C. and pH 4.5 using an assay of the invention (embodiment Two).
(§1) Prepare substrate solution by dissolving end-blocked p-nitrophenyl cello-oligosaccharides or end-blocked 2-Cl-4-nitrophenyl cello-oligosaccharide (DP 2, 3 or 4) in 2 mL of dimethyl sulphoxide to obtain a concentration of 12.5 mM. Cool this solution in ice and add 3 mL of 170 mM potassium chloride solution with mixing, to give a final substrate concentration of 5 mM. Prepare this solution fresh before use, or warm to 40° C. before use to ensure complete dissolution.
Add an aliquot (0.1 mL) of the substrate solution to the bottom of a 16×120 mm glass test tube, followed by 0.05 mL of pure β-glucosidase (Second embodiment only). Incubate tubes for 2 min at the selected reaction temperature and initiate the reaction by adding 0.1 mL of sample solution containing cellulase in 200 mM buffer solution of the desired pH (usually in the range of 4.5 to 8.0). […] Mix the tube contents and measure the absorbance at 400 nm against a reaction blank.

[2] = test system: cellulase from Aspergillus niger; assay: Cellulase assay: release of C1PNP (absorbance 400 nm) from end-blocked substrates, with and without β-glucosidase; format: biochemical; conditions: 40° C., pH 4.5; absorbance 400 nm vs. time; FIGS. 2a-2b
Protocol: FIGS. 2a-2b are graphs of absorbance (400 nm) vs. time, for the action of a cellulase from Aspergillus niger on. […] FIG. 2b shows_end-blocked 2-chloro-4-nitrophenyl cellotriose (BC1PNP-G3) (700 milli-International Units per assay) at 40° C. and pH 4.5 in the presence and the absence of β-glucosidase using an assay of the invention. […] Note: One International Unit of enzyme activity as defined is the amount of enzyme required to release one micromole of reducing sugar equivalents per minute from carboxymethyl cellulose 4M (CMC-4M) (10 mg/mL) in 100 mM sodium acetate buffer (pH 4.5).
as §1
Add an aliquot (0.1 mL) of the substrate solution to the bottom of a 16×120 mm glass test tube, followed by 0.05 mL of pure β-glucosidase (Second embodiment only). […] Mix the tube contents and measure the absorbance at 400 nm against a reaction blank.

end-blocked 2-chloro-4-nitrophenyl cellobiose [BC1PNP-G2]
sensitivity of the assay (rate of release of C1PNP) in the presence vs absence of β-glucosidase [1]: same sensitivity of the assay; also recorded: the same result is seen | sensitivity of the assay (rate of release of C1PNP) in the presence vs absence of β-glucosidase [2]: same sensitivity of the assay; also recorded: no increase in the colour formed

end-blocked 2-chloro-4-nitrophenyl cellotriose [BC1PNP-G3]
sensitivity of the assay (rate of release of C1PNP) in the presence vs absence of β-glucosidase [1]: greater sensitivity of the assay in the presence of added β-glucosidase | sensitivity of the assay (rate of release of C1PNP) in the presence vs absence of β-glucosidase [2]: same sensitivity of the assay; also recorded: no increase in the colour formed

end-blocked p-nitrophenyl cellobiose [BPNP-G2]
rate of hydrolysis by Trichoderma cellulase (comparison of substrates) ([1]; absence of added β-glucosidase, 1500 milli-International Units per assay, FIG. 4): slower rate than BC1PNP-G2

— patent US20140154721A1, “Cellulase Assay” (Megazyme IP Limited, priority 2012, published 2014)
